Patent US4038287A, “Compounds of allantoin with basic amino acids” (Kawaken Fine Chemicals Co., Ltd., priority 1975, dated 1977)
In brackets after ≈: the same amount, converted by molar mass.

What was measured:
Assay type in all cases: physicochemical
[1] = Solubility (wt.% at 20° C.) in water and alcohol-water solutions; conditions: for solubility: water
Source text: (§1) The solubility of pure allantoin at room temperature is 0.6 wt. % in water, 1.0 wt. % in glycerol and 0.3 wt. % in 50 vol. % aqueous solution of ethyl alcohol. In contrast, the solubilities of the compounds of the present invention in the aforementioned solvents are shown in Table I. It will be understood from Table I that all compounds of the present invention can be dissolved to make present in the solution much more allantoin than can be obtained by dissolving allantoin, per se.
Solubility (wt.% at 20° C.)

[2] = Dissolved amount of allantoin component of the compounds; conditions: 20° C.
Source text: as §1
Also, comparing the dissolved amount of the allantoin component of the compounds according to the present invention and that allantoin, per se, the former is about fifteen times greater than that of allantoin, per se, and the effects of allantoin are thereby improved.

[3] = pH of a saturated solution in water
Source text: Referring to the pH of a saturated solution obtained by dissolving the compounds of the present invention, respectively, in water, the solution pH of allantoin/arginine molecular compound was 8.5, that of allantoin/ornithine molecular compound was 9.0 and that of allantoin/lysine compound was 8.9. When the pH of the respective saturated solutions of compounds according to the invention was adjusted, with HCl solution, to the pH value of a saturated solution of pure allantoin in water, namely 5 to 6, and even though the saturated solutions of the compounds according to the invention contain a higher concentration of allantoin than that of a saturated solution of pure allantoin, no crystals of allantoin precipitated from the respective solutions of compounds according to the invention.

[4] = physchem
Source text: as §1

Solubility in 50% ethyl alcohol-water solution [1] [wt.%]	Solubility in 50% isopropyl alcohol-water solution [1] [wt.%]	Solubility in 50% methyl alcohol-water solution [1] [wt.%]	solubility [1] [mg/mL]	Dissolved amount of allantoin component, 50% ethyl alcohol-water solution [2] [wt.%]	Dissolved amount of allantoin component, 50% isopropyl alcohol-water solution [2] [wt.%]	Dissolved amount of allantoin component, 50% methyl alcohol-water solution [2] [wt.%]	Dissolved amount of allantoin component, water [2] [wt.%]	pH of a saturated solution in water [3]	Solubility of pure allantoin in 50 vol. % aqueous solution of ethyl alcohol [4] [wt. %]	Solubility of pure allantoin in glycerol [4] [wt. %]	solubility ([4]; water) [mg/mL]	SMILES
12.3	6.6	26.2	405 (≈ 1400 mM)	6.7	3.6	14.3	22.1	9.0				NC(=O)NC1NC(O)(NCCCC(N)C(=O)O)NC1=O (stereo not shown) [Allantoin/ornithine compound (B)]
9.6	4.8	21.7	300 (≈ 986 mM)	5.0	2.5	11.3	15.6	8.9				NC(=O)NC1NC(O)(NCCCCC(N)C(=O)O)NC1=O (stereo not shown) [Allantoin/lysine compound (C)]
19.8	9.9	43.3	603 (≈ 1810 mM)	9.4	4.6	20.2	28.2	8.5				N=C(NCCCC(N)C(=O)O)NC1(O)NC(=O)C(NC(N)=O)N1 (stereo not shown) [Allatoin/arginine (1:1) compound (A)]
0.3	0.1	0.5	6 (≈ 37.9 mM)						0.3	1.0	6 (≈ 37.9 mM)	NC(=O)NC1NC(=O)NC1=O (stereo not shown) [Allantoin, allantoin]
